From PubChem BioAssay (NCI)
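Protocol summary: plate cells (96-well), add compound at 5 concentrations, incubate 48 h, interpolate endpoints linearly. At the GI50, growth is halved. Definition used: TGI = concentration required for complete inhibition of growth.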

Legend:
Assay in all cases: NCI tumour cell line growth inhibition, 48 h
[1] = test system: SK-MEL-28 melanoma
[2] = test system: M14 melanoma
[3] = test system: HL-60(TB) leukemia
[4] = test system: HCT-15 colon
[5] = test system: UACC-257 melanoma
[6] = test system: BT-549 breast
[7] = test system: NCI-H23 lung
[8] = test system: MALME-3M melanoma
[9] = test system: SNB-75 CNS
[10] = test system: 786-0 renal

SMILES | GI50 [1] | TGI [1] | GI50 [2] | TGI [2] | GI50 [3] | TGI [3] | GI50 [4] | TGI [4] | GI50 [5] | TGI [5] | GI50 [6] | TGI [6] | GI50 [7] | TGI [7] | GI50 [8] | TGI [8] | GI50 [9] | TGI [9] | GI50 [10] | TGI [10]
NC(=O)C1c2ccccc2C=Cc2ccccc21 | > 100 µM | > 100 µM | > 100 µM | > 100 µM | > 100 µM | > 100 µM | > 100 µM | > 100 µM | > 100 µM | > 100 µM | > 100 µM | > 100 µM | > 100 µM | > 100 µM | > 100 µM | > 100 µM | > 100 µM | > 100 µM | > 100 µM | > 100 µM
Cc1ccc2c(c1)C(C)Cc1c(ncnc1-n1cnc3cc(C)ccc31)N2C (centres undefined) | 0.0743 µM | 15.8 µM | – | – | 0.025 µM | 0.0557 µM | 0.0334 µM | 11.7 µM | 5.34 µM | 21.4 µM | 0.0281 µM | 0.338 µM | 0.0567 µM | 21.5 µM | 11 µM | 23.7 µM | 0.0262 µM | 13.4 µM | 0.0371 µM | 12.5 µM
CCN(CC)c1ccc(C2CC(c3cc(OC)c(OC)c(OC)c3)=NN2)cc1 (centres undefined) | 23.7 µM | > 100 µM | 1.16 µM | > 100 µM | 0.59 µM | 2.7 µM | 0.597 µM | > 100 µM | 20.2 µM | > 100 µM | 1.03 µM | > 22.9 µM | 2.69 µM | > 100 µM | 14.5 µM | > 78.7 µM | 0.372 µM | – | 0.303 µM | –
Nc1ccccc1SC(CC(=O)c1ccccc1)c1ccc([N+](=O)[O-])cc1 (centres undefined) | 14.4 µM | 27.6 µM | 13.8 µM | 27.8 µM | 12.6 µM | 35.2 µM | 8.51 µM | 22.4 µM | 14.5 µM | 27.8 µM | 13.6 µM | 26.6 µM | 13.5 µM | 27.2 µM | 15.3 µM | 30.3 µM | 11.2 µM | 23.3 µM | 17.2 µM | 31 µM
CC(C)CCSC1=CC(=O)c2ccccc2C1=O | 5.7 µM | 10.7 µM | 15.6 µM | 33.4 µM | 0.325 µM | 0.943 µM | 6.61 µM | 19.1 µM | 13.3 µM | 26.7 µM | 1.33 µM | 21.3 µM | 14.5 µM | 34.7 µM | 1.57 µM | 4.24 µM | 0.811 µM | > 46.9 µM | 19.8 µM | 34.4 µM
COc1c2c3ccccc3nc-2n(C)c2ccccc12 | 14.7 µM | 36.9 µM | – | – | 9.88 µM | 47.6 µM | 5.29 µM | 50.6 µM | 21.9 µM | 55.6 µM | 18.8 µM | 43.5 µM | 11.7 µM | 33.6 µM | – | – | 14.1 µM | 35.4 µM | 6.54 µM | 40.5 µM
O=C(NCCc1ccccc1)C(c1ccccc1)(c1ccccc1)c1ccccc1 | 20.1 µM | > 100 µM | – | – | 38.7 µM | > 100 µM | 5.91 µM | > 100 µM | – | – | 5.99 µM | 44.9 µM | – | – | – | – | > 100 µM | > 100 µM | 5.43 µM | > 100 µM
